Measurements as given in PubChem BioAssay (NCI).
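Results reflect a 48-hour exposure of cells in 96-well plates to compound at five concentrations. TGI denotes the concentration required for complete inhibition of growth.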

Experiments:
Experiment in all cases: NCI tumour cell line growth inhibition, 48 h
SN12C renal = test system: SN12C renal
A498 renal = test system: A498 renal
CCRF-CEM leukemia = test system: CCRF-CEM leukemia
SNB-19 CNS = test system: SNB-19 CNS
U251 CNS = test system: U251 CNS
IGROV1 ovarian = test system: IGROV1 ovarian
SF-268 CNS = test system: SF-268 CNS
SF-295 CNS = test system: SF-295 CNS
KM12 colon = test system: KM12 colon
DU-145 prostate = test system: DU-145 prostate
MDA-MB-435 = test system: MDA-MB-435
RXF 393 renal = test system: RXF 393 renal
NCI-H23 lung = test system: NCI-H23 lung
UO-31 renal = test system: UO-31 renal
SK-OV-3 ovarian = test system: SK-OV-3 ovarian
NCI-H522 lung = test system: NCI-H522 lung
PC-3 prostate = test system: PC-3 prostate
M14 melanoma = test system: M14 melanoma
OVCAR-8 ovarian = test system: OVCAR-8 ovarian
MOLT-4 leukemia = test system: MOLT-4 leukemia

Compound	TGI (SN12C renal)	TGI (A498 renal)	TGI (CCRF-CEM leukemia)	TGI (SNB-19 CNS)	TGI (U251 CNS)	TGI (IGROV1 ovarian)	TGI (SF-268 CNS)	TGI (SF-295 CNS)	TGI (KM12 colon)	TGI (DU-145 prostate)	TGI (MDA-MB-435)	TGI (RXF 393 renal)	TGI (NCI-H23 lung)	TGI (UO-31 renal)	TGI (SK-OV-3 ovarian)	TGI (NCI-H522 lung)	TGI (PC-3 prostate)	TGI (M14 melanoma)	TGI (OVCAR-8 ovarian)	TGI (MOLT-4 leukemia)
NCCNCCCNC(=O)c1cc(-c2ccccc2)nc2ccccc12	> 100 µM	> 100 µM	51.2 µM	> 100 µM	36.6 µM	> 100 µM	> 100 µM	> 100 µM	> 100 µM	> 100 µM	43.5 µM	> 100 µM	> 100 µM	> 100 µM	> 100 µM	37.6 µM	> 100 µM	28.3 µM	> 100 µM	52.3 µM
Cn1cnc2c1c(=O)n(CCNCCO)c(=O)n2C	> 100 µM	> 100 µM	> 100 µM	> 100 µM	> 100 µM	> 100 µM	> 100 µM	> 100 µM	> 100 µM	> 100 µM	> 100 µM	> 100 µM	> 100 µM	> 100 µM	> 100 µM	> 100 µM	> 100 µM	> 100 µM	> 100 µM	> 100 µM
CC(=O)N(CCCCNC(=O)C(F)(F)F)CCCNC(=O)C(F)(F)F	> 100 µM	> 100 µM	> 100 µM	> 100 µM	> 100 µM	> 100 µM	> 100 µM	> 100 µM	> 100 µM	> 100 µM	> 100 µM	> 100 µM	> 100 µM	> 100 µM	> 100 µM	> 100 µM	> 100 µM	> 100 µM	> 100 µM	> 100 µM
N=c1oc2ccccc2cc1C(=O)Nc1nccs1	> 100 µM	> 100 µM	20 µM	> 100 µM	> 100 µM	> 49.2 µM	> 100 µM	> 100 µM	> 100 µM	> 79.4 µM	> 100 µM	> 83.9 µM	> 100 µM	0.22 µM	> 83.4 µM	3.82 µM	> 100 µM	> 100 µM	> 92.4 µM	22.1 µM
CC(C)NC(=O)OCc1c(COC(=O)NC(C)C)c(-c2cc[n+](COC(=O)C(C)C)cc2)n2c1CCC2	> 100 µM	35.9 µM	> 100 µM	> 100 µM	> 100 µM	> 100 µM	> 100 µM	> 100 µM	> 100 µM	> 100 µM	> 100 µM	62.5 µM	> 100 µM	> 100 µM	> 100 µM	> 100 µM	> 100 µM	> 100 µM	> 100 µM	99.2 µM
